Experimental data taken from US20090170827A1, “Acid Addition Salt of Dihydropyridine Derivative” (Daiichi Sankyo Company , Limited, priority 2005, published 2009).

Experiment: Thermal stability test
Type: physicochemical
Experimental: The test compound was placed in a glass bottle and allowed to stand under the following conditions (1) and (2). After a certain period of time had elapsed, the residual rate of the active ingredient [compound (I)] in the test compound was measured by high performance liquid chromatography.
(1): Closed state, 60° C.;
(2): Non-closed state, 40° C., humidity 75%.
The measurement conditions in high performance liquid chromatography are as follows.
Column: L-column ODS [4.6 mm×250 mm, manufactured by Chemicals Evaluation and Research Institute, Japan]
Mobile layer: acetonitrile/22 mM potassium dihydrogenphosphate buffer/methanol=455/350/195 (V/V/V) (adjusted to pH 5.5 by phosphoric acid)
Column temperature: 40° C.
Detection wavelength: 220 nm
The residual rate (%) was calculated by the following formula.
The residual rate (%)=[1−(sum of peak area percentages of impurities and decomposed products)]×100

[1] = Condition (1): closed state, 60° C.
[2] = Condition (1): closed state, 60° C., time 0 month
[3] = Condition (1): closed state, 60° C., time 1 month
[4] = Condition (1): closed state, 60° C., time 3 months
[5] = Condition (2): non-closed state, 40° C., humidity 75%
[6] = Condition (2): non-closed state, 40° C., humidity 75%, time 0 month
[7] = Condition (2): non-closed state, 40° C., humidity 75%, time 1 month
[8] = Condition (2): non-closed state, 40° C., humidity 75%, time 3 months
[9] = Condition (1): closed state, 60° C., time 6 months
[10] = Condition (1): closed state, 60° C., time 0 month, dihydrochloride
[11] = Condition (1): closed state, 60° C., time 1 month, dihydrochloride
[12] = Condition (2): non-closed state, 40° C., humidity 75%, dihydrochloride
[13] = Condition (2): non-closed state, 40° C., humidity 75%, time 0 month, dihydrochloride
[14] = Condition (2): non-closed state, 40° C., humidity 75%, time 6 months

stability (in words) [1]	Residual rate of Compound (I) [2] [%]	Residual rate of Compound (I) [3] [%]	Residual rate of Compound (I) [4] [%]	stability (in words) [5]	Residual rate of Compound (I) [6] [%]	Residual rate of Compound (I) [7] [%]	Residual rate of Compound (I) [8] [%]	Residual rate of Compound (I) [9] [%]	Residual rate of Compound (I) [10] [%]	Residual rate of Compound (I) [11] [%]	stability (in words) [12]	Residual rate of Compound (I) [13] [%]	Residual rate of Compound (I) (Condition (2): non-closed state, 40° C., humidity 75%, time 1 month, Dihydrochloride) [%]	Residual rate of Compound (I) [14] [%]	Molecule
equal in stability	98.8	96.9	95.8	–	–	–	–	–	–	–	–	–	–	–	CC1=C(C(=O)OC(C)C)C(c2cccc([N+](=O)[O-])c2)C(C(=O)OC2CN(C(c3ccccc3)c3ccccc3)C2)=C(N)N1.O=C(O)CC(O)(CC(=O)O)C(=O)O (single isomer, unassigned) [Example 2, 2-Amino-1,4-dihydro-6-methyl-4-(3-nitrophenyl)-3,5-pyridinedicarboxylic acid 3-(1-diphenylmethylazetidin-3-yl)ester 5-isopropyl ester monocitrate]
extremely low stability	–	–	58.9	–	–	62.9	59.0	–	98.1	60.0	low stability	98.1	–	–	CC1=C(C(=O)OC(C)C)C(c2cccc([N+](=O)[O-])c2)C(C(=O)OC2CN(C(c3ccccc3)c3ccccc3)C2)=C(N)N1.Cl.Cl (centres unmarked) [Comparative Example 1, 2-Amino-1,4-dihydro-6-methyl-4-(3-nitrophenyl)-3,5-pyridinedicarboxylic acid 3-(1-diphenylmethylazetidin-3-yl)ester 5-isopropyl ester dihydrochloride, reference compound]
extremely low stability	–	–	–	–	–	–	–	–	97.3	10.3	extremely low stability	97.3	11.3	–	CC1=C(C(=O)OC(C)C)C(c2cccc([N+](=O)[O-])c2)C(C(=O)OC2CN(C(c3ccccc3)c3ccccc3)C2)=C(N)N1.Cl.Cl (centres unmarked) [Comparative Example 2, 2-Amino-1,4-dihydro-6-methyl-4-(3-nitrophenyl)-3,5-pyridinedicarboxylic Acid 3-(1-diphenylmethylazetidin-3-yl)ester 5-isopropyl Ester Dihydrochloride, reference compound]
did not have high stability	99.5	96.9	94.9	low stability	99.5	93.9	88.9	92.8	–	–	–	–	–	84.8	CC1=C(C(=O)OC(C)C)C(c2cccc([N+](=O)[O-])c2)C(C(=O)OC2CN(C(c3ccccc3)c3ccccc3)C2)=C(N)N1.O=S(=O)(O)O (centres unmarked) [Comparative Example 3, 2-Amino-1,4-dihydro-6-methyl-4-(3-nitrophenyl)-3,5-pyridinedicarboxylic Acid 3-(1-diphenylmethylazetidin-3-yl)ester 5-isopropyl Ester Monosulfate, reference compound]
–	99.6	98.7	98.5	–	–	–	–	–	–	–	–	–	–	–	CC1=C(C(=O)OC(C)C)C(c2cccc([N+](=O)[O-])c2)C(C(=O)OC2CN(C(c3ccccc3)c3ccccc3)C2)=C(N)N1.CS(=O)(=O)O.CS(=O)(=O)O (centres unmarked) [Example 3, 2-Amino-1,4-dihydro-6-methyl-4-(3-nitrophenyl)-3,5-pyridinedicarboxylic acid 3-(1-diphenylmethylazetidin-3-yl)ester 5-isopropyl ester dimethanesulfonate]
–	99.5	98.6	98.1	excellent stability	99.5	99.1	98.8	–	–	–	–	–	–	–	CC1=C(C(=O)OC(C)C)C(c2cccc([N+](=O)[O-])c2)C(C(=O)OC2CN(C(c3ccccc3)c3ccccc3)C2)=C(N)N1.CS(=O)(=O)O.CS(=O)(=O)O.CS(=O)(=O)O (centres unmarked) [Example 4, 2-Amino-1,4-dihydro-6-methyl-4-(3-nitrophenyl)-3,5-pyridinedicarboxylic acid 3-(1-diphenylmethylazetidin-3-yl)ester 5-isopropyl ester trimethanesulfonate]
equal in stability	99.7	98.6	96.5	–	–	–	–	93.3	–	–	–	–	–	–	CC1=C(C(=O)OC(C)C)C(c2cccc([N+](=O)[O-])c2)C(C(=O)OC2CN(C(c3ccccc3)c3ccccc3)C2)=C(N)N1.O=S(=O)(O)c1ccccc1.O=S(=O)(O)c1ccccc1 (centres unmarked) [Example 5, 2-Amino-1,4-dihydro-6-methyl-4-(3-nitrophenyl)-3,5-pyridinedicarboxylic acid 3-(1-diphenylmethylazetidin-3-yl)ester 5-isopropyl ester dibenzenesulfonate]
–	99.6	98.8	98.3	excellent stability	99.6	97.5	96.4	97.3	–	–	–	–	–	94.5	CC1=C(C(=O)OC(C)C)C(c2cccc([N+](=O)[O-])c2)C(C(=O)OC2CN(C(c3ccccc3)c3ccccc3)C2)=C(N)N1.Cc1ccc(S(=O)(=O)O)cc1.Cc1ccc(S(=O)(=O)O)cc1 (centres unmarked) [Example 6, 2-Amino-1,4-dihydro-6-methyl-4-(3-nitrophenyl)-3,5-pyridinedicarboxylic acid 3-(1-diphenylmethylazetidin-3-yl)ester 5-isopropyl ester di-p-toluenesulfonate]

Molecule	stability (in words) [1]	Residual rate of Compound (I) [2] [%]	Residual rate of Compound (I) [3] [%]	Residual rate of Compound (I) [4] [%]	stability (in words) [5]	Residual rate of Compound (I) [6] [%]	Residual rate of Compound (I) [7] [%]	Residual rate of Compound (I) [8] [%]	Residual rate of Compound (I) [9] [%]	Residual rate of Compound (I) [10] [%]	Residual rate of Compound (I) [11] [%]	stability (in words) [12]	Residual rate of Compound (I) [13] [%]	Residual rate of Compound (I) (Condition (2): non-closed state, 40° C., humidity 75%, time 1 month, Dihydrochloride) [%]	Residual rate of Compound (I) [14] [%]
2-Amino-1,4-dihydro-6-methyl-4-(3-nitrophenyl)-3,5-pyridinedicarboxylic Acid 3-(1-diphenylmethylazetidin-3-yl)ester 5-isopropyl Ester Hemifumarate [Comparative Example 4, reference compound]	did not have high stability	99.7	96.7	93.0	low stability	99.7	94.8	91.3	–	–	–	–	–	–	–
2-Amino-1,4-dihydro-6-methyl-4-(3-nitrophenyl)-3,5-pyridinedicarboxylic acid 3-(1-diphenylmethylazetidin-3-yl)ester 5-isopropyl Ester Dinaphthalenesulfonate [Example 7]	equal in stability	99.4	97.3	95.4	–	–	–	–	93.0	–	–	–	–	–	–
